Reference: patent publication US8134015B2, “Compound inhibiting in vivo phosphorous transport and medicine containing the same” (Kyowa Hakko Kirin Co., Ltd., priority 2003, dated 2012)

Target: T1, rat NaPi-2b (Rattus norvegicus, UniProt Q9JJ09)
T1 construct: expressed in transfected cells; host or cells: Xenopus oocytes injected with cRNA
T1 sequence (Q9JJ09 1-695): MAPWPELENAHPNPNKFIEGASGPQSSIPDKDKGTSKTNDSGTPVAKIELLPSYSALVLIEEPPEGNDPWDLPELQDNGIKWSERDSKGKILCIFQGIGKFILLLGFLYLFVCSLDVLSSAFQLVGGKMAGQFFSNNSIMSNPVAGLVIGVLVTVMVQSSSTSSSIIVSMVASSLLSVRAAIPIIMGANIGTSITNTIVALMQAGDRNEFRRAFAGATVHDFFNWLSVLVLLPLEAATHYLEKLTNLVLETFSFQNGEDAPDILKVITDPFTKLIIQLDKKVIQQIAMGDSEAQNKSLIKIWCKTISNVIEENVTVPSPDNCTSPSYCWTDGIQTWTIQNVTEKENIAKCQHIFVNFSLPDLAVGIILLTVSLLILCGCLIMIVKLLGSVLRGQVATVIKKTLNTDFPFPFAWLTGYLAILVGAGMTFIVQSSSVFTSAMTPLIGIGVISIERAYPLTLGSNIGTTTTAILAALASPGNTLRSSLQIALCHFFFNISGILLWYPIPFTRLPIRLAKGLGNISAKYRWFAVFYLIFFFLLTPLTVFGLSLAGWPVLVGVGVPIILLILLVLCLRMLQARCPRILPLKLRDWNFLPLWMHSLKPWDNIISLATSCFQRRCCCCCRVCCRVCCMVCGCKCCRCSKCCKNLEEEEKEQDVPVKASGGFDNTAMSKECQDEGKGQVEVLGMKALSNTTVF
Assay: Sodium-dependent phosphate uptake of Xenopus oocytes which expressed NaPi-2b (32P)
Format: cell-based
Details: Xenopus oocytes expressing rat NaPi-2b, 32P radioactive phosphorus; read-out: IC50 (phosphate uptake inhibitory activity)
Procedure: Pharmacological Test Example 1
Experiment of Sodium-Dependent Phosphate Uptake of Xenopus oocytes which Expressed NaPi-2b
Degenerate primers were prepared from sequences of mouse NaPi-2b disclosed in Hilfiker H. et al., Pro Natl Acad Sci USA, 95 (24): 14564-14569, […] and sequences of human and rat NaPi-2a disclosed in Magagnin S. et al., Proc Natl Aca Sci USA, 90 (13): 5979-5983, 1993. RNA was extracted from the rat small intestine using ISOGEN; manufactured by NIPPON GENE CO., LTD (Japan). 400 bp gene fragments were obtained by PCR using, as a template, a cDNA library prepared with a cDNA synthesis kit (manufactured by STRATAGENE (US)). Thereafter, the above rat small intestine cDNA library was screened using the gene fragment as a probe, and the whole gene sequence of rat NaPi-2b was cloned. cRNA was synthesized from the cloned rat NaPi-2b cDNA with a cRNA synthesis kit (manufactured by Ambion (US)). The synthesized cRNA was injected into Xenopus oocytes (obtained from COPACETIC (Japan)) with a liquid microinjector (manufactured by Drummond (US)) and was cultured for 2 days to express rat NaPi-2b. Thereafter, for a group of derivatives, phosphate uptake inhibitory activity were measured using the Xenopus oocytes with ^32P radioactive phosphorus (manufactured by Daiichi Kagaku Inc. (Japan)). […] The inhibitory activity for 300 μM and 100 μM was determined from the same inhibition curve and expressed in percentage inhibition (%) in Table 5.

Going from `CCN(CC)CCN(C)Cc1cccc(C(=O)Nc2ccc(N3CCOCC3)cc2C(=O)N/N=C/c2ccc(OC)cc2)c1` [Compound 1076, 3-{[(2-Diethylamino-ethyl)-methyl-amino]-methyl}-N-[2-(4-methoxy-benzylidene-hydrazinocarbonyl)-4-morpholin-4-yl-phenyl]-benzamide] to `COc1ccc(/C=N/NC(=O)c2cc(N3CCC(C)CC3)ccc2NC(=O)c2cccc(CSCCO)c2)cc1` [Compound 1071, 3-(2-Hydroxy-ethylsulfanylmethyl)-N-[2-(4-methoxy-benzylidene-hydrazinocarbonyl)-4-(4-methyl-piperidin-1-yl)-phenyl]-benzamide], the IC50 falls from 2.57 µM to less than 1 µM. The second is the more potent here.

Going from `O=C(Nc1ccc(Cl)cc1C(=O)N/N=C/c1ccc(F)cc1)c1cccc(CN2CCC(N3CCCCC3)CC2)c1` [Compound 369, 3-[1,4′]Bipiperidinyl-1′-ylmethyl-N-[4-chloro-2-(4-fluoro-benzylidene-hydrazinocarbonyl)-phenyl]-benzamide] to `O=C(Nc1ccc(Br)cc1C(=O)N/N=C/c1ccc(F)cc1)c1ccc(CN2CCC(N3CCCCC3)CC2)cc1` [Compound 311, 4-[1,4′]Bipiperidinyl-1′-ylmethyl-N-[4-bromo-2-(4-fluoro-benzylidene-hydrazinocarbonyl)-phenyl]-benzamide], the IC50 rises from 1.45 µM to 7.78 µM (5.4-fold).

First: CCN(CC)CCN(C)Cc1cccc(C(=O)Nc2sc3c(c2C(=O)N/N=C/c2ccc(C)c(C)c2)CCCC3)c1 [Compound 609, 3-{[(2-Diethylamino-ethyl)-methyl-amino]-methyl}-N-[3-(3,4-dimethyl-benzylidene-hydrazinocarbonyl)-4,5,6,7-tetrahydro-benzo[b]thiophen-2-yl]-benzamide]
Second: CCN(CC)Cc1cccc(C(=O)Nc2sc(CN3CCCCC3)c(C)c2C(=O)N/N=C/c2ccc(Cl)c(C(F)(F)F)c2)c1 [Compound 956, N-[3-(4-Chloro-3-trifluoromethyl-benzylidene-hydrazinocarbonyl)-4-methyl-5-piperidin-1-ylmethyl-thiophen-2-yl]-3-diethylaminomethyl-benzamide]
The IC50 of the first is lower: less than 0.3 µM for the first, 29.8 µM for the second. The first is the more potent here.

Compared with `COc1ccc(C(=O)Nc2cc(Cl)ccc2C(=O)N/N=C/c2ccc(C)cc2)cc1OC` [Compound 74, N-[5-Chloro-2-(4-methyl-benzylidene-hydrazinocarbonyl)-phenyl]-3,4-dimethoxy-benzamide], `COc1ccc(NC(=O)c2ccc(OC)c(OC)c2)c(C(=O)N/N=C/c2cccc(C)c2)c1` [Compound 143, 3,4-Dimethoxy-N-[4-methoxy-2-(3-methyl-benzylidene-hydrazinocarbonyl)-phenyl]-benzamide] is 2.7-fold higher in IC50: 2.15 µM for the first, 5.88 µM for the second. The first is the more potent here.

Going from `COc1ccc(/C=N/NC(=O)c2cc(Br)ccc2NC(=O)c2ccc(CN3CCC(CO)CC3)cc2)cc1` [Compound 338, N-[4-Bromo-2-(4-methoxy-benzylidene-hydrazinocarbonyl)-phenyl]-4-(4-hydroxymethyl-piperidin-1-ylmethyl)-benzamide] to `Cc1cccc(/C=N/NC(=O)c2cc(Br)ccc2NC(=O)c2ccc(CN3CCC(CO)CC3)cc2)c1` [Compound 334, N-[4-Bromo-2-(3-methyl-benzylidene-hydrazinocarbonyl)-phenyl]-4-(4-hydroxymethyl-piperidin-1-ylmethyl)-benzamide], the IC50 falls from 19 µM to 7.69 µM (2.5-fold). The second is the more potent here.

Compared with `Cc1ccc(/C=N/NC(=O)c2cc(Cl)ccc2NC(=O)c2cccc(CN(CCO)CCO)c2)cc1` [Compound 405, 3-{[Bis-(2-hydroxy-ethyl)-amino]-methyl}-N-[4-chloro-2-(4-methyl-benzylidene-hydrazinocarbonyl)-phenyl]-benzamide], `COc1ccc(/C=N/NC(=O)c2cc(Cl)ccc2NC(=O)c2ccc(CN(C)CCO)cc2)cc1` [Compound 419, N-[4-Chloro-2-(4-methoxy-benzylidene-hydrazinocarbonyl)-phenyl]-4-{[(2-hydroxy-ethyl)-methyl-amino]-methyl}-benzamide] is 4.8-fold higher in IC50: 1.9 µM for the first, 9.2 µM for the second.

Going from `CN(C)CCn1nnnc1SCc1cccc(C(=O)Nc2ccc(Cl)cc2C(=O)N/N=C/c2ccc(F)cc2)c1` [Compound 463, N-[4-Chloro-2-(4-fluoro-benzylidene-hydrazinocarbonyl)-phenyl]-3-[1-(2-dimethylamino-ethyl)-1H-tetrazol-5-ylsulfanylmethyl]-benzamide] to `O=C(Nc1ccc(Cl)cc1C(=O)N/N=C/c1ccc(Cl)c(C(F)(F)F)c1)c1cccc(CSc2nc[nH]n2)c1` [Compound 393, N-[4-Chloro-2-(4-chloro-3-trifluoromethyl-benzylidene-hydrazinocarbonyl)-phenyl]-3-(1H-[1,2,4]triazol-3-ylsulfanylmethyl)-benzamide], the IC50 falls from 4.44 µM to 0.52 µM (8.5-fold).

Compared with `Cc1ccc(/C=N/NC(=O)c2cc(Br)ccc2NC(=O)c2ccc(CN3CCC(N4CCCCC4)CC3)cc2)cc1` [Compound 309, 4-[1,4′]Bipiperidinyl-1′-ylmethyl-N-[4-bromo-2-(4-methyl-benzylidene-hydrazinocarbonyl)-phenyl]-benzamide], `O=C(Nc1ccc(N2CCCCC2)cc1C(=O)N/N=C/c1ccc(F)cc1)c1cccc(CN2CCC(O)CC2)c1` [Compound 872, N-[2-(4-Fluoro-benzylidene-hydrazinocarbonyl)-4-piperidin-1-yl-phenyl]-3-(4-hydroxy-piperidin-1-ylmethyl)-benzamide] is lower in IC50: 15.1 µM for the first, less than 3 µM for the second.

Going from `Cc1cc(/C=N/NC(=O)c2ccccc2NC(=O)c2cccnc2)oc1C` [Compound 218, N-[2-(4,5-Dimethyl-furan-2-ylmethylene-hydrazinocarbonyl)-phenyl]-nicotinamide] to `Cn1cccc1/C=N/NC(=O)c1cc(Cl)ccc1NC(=O)c1cccnc1` [Compound 212, N-[4-Chloro-2-(1-methyl-1H-pyrrol-2-ylmethylene-hydrazinocarbonyl)-phenyl]-nicotinamide], the IC50 rises from 4.05 µM to 71.3 µM (18-fold). The first is the more potent here.

First: COc1ccc(NC(=O)c2ccc(OC)c(OC)c2)c(C(=O)N/N=C/c2cccc(F)c2)c1 [Compound 141, N-[2-(3-Fluoro-benzylidene-hydrazinocarbonyl)-4-methoxy-phenyl]-3,4-dimethoxy-benzamide]
Second: Cc1ccc(/C=N/NC(=O)c2cc(Br)ccc2NC(=O)c2ccco2)cc1C [Compound 155, Furan-2-carboxylic acid [4-bromo-2-(3,4-dimethyl-benzylidene-hydrazinocarbonyl)-phenyl]-amide]
The IC50 of the first is 18-fold higher: 5.78 µM for the first, 0.32 µM for the second.

Compared with `O=C(Nc1sccc1C(=O)N/N=C/c1ccc(F)cc1)c1cccc(CSCCCO)c1` [Compound 660, N-[3-(4-Fluoro-benzylidene-hydrazinocarbonyl)-thiophen-2-yl]-3-(3-hydroxy-propylsulfanylmethyl)-benzamide], `O=C(Nc1ccc(Br)cc1C(=O)N/N=C/c1ccc(Cl)c(C(F)(F)F)c1)c1cccs1` [Compound 162, Thiophene-2-carboxylic acid [4-bromo-2-(4-chloro-3-trifluoromethyl-benzylidene-hydrazinocarbonyl)-phenyl]-amide] is 6-fold lower in IC50: 18.7 µM for the first, 3.11 µM for the second.

Same assay, conditions: phosphate uptake, oocytes expressing rat NaPi-2b; 300 μM, determined from inhibition curve

In order of rising inhibition at 300 µM:
1. COc1ccc(C(=O)Nc2ccccc2C(=O)N/N=C/c2ccccn2)cc1OC [Compound 245]  31.7%
2. COc1ccc(C(=O)Nc2ccccc2C(=O)N/N=C/c2ccc(Br)cc2)cc1OC [Compound 234, N-[2-(4-Bromo-benzylidene-hydrazinocarbonyl)-phenyl]-3,4-dimethoxy-benzamide]  37.9%
3. Cc1ccc(/C=N/NC(=O)c2scc(C)c2NC(=O)c2cccc(CSCCCO)c2)cc1C [Compound 525, N-[2-(3,4-Dimethyl-benzylidene-hydrazinocarbonyl)-4-methyl-thiophen-3-yl]-3-(3-hydroxy-propylsulfanylmethyl)-benzamide]  38.9%
4. Cc1ccc(/C=N/NC(=O)c2cc(Br)ccc2NC(=O)c2ccc(CN3CCN(c4ccccn4)CC3)cc2)cc1C [Compound 772, N-[4-Bromo-2-(3,4-dimethyl-benzylidene-hydrazinocarbonyl)-phenyl]-4-(4-pyridin-2-yl-piperazin-1-ylmethyl)-benzamide]  67.7%
